Test results reported in the NIST ThermoML archive (doi:10.1016/j.jct.2019.04.020).
Numbers after ± are expanded uncertainties.

Settings: Liquid, Closed cell (Static) method

Row | Structure (SMILES) | vapor or sublimation pressure (293.15 K) [kPa] | vapor or sublimation pressure (303.15 K) [kPa] | vapor or sublimation pressure (313.15 K) [kPa] | vapor or sublimation pressure (323.14 K) [kPa]
1 | F/C=C/C(F)(F)F [trans-1,3,3,3-tetrafluoropropene] | 427.4 ± 5.1 | 577.6 ± 5.1 | 765.3 ± 5.2 | 997.8 ± 5.3
2 | FCC(F)(F)F [1,1,1,2-tetrafluoroethane] | 571.1 ± 5.1 | 771.4 ± 5.2 | 1018.1 ± 5.3 | 1316.9 ± 5.5
3 | FCF [difluoromethane] | 1473.2 ± 5.7 | 1926.7 ± 6.1 | 2476.3 ± 6.6 | 3142.2 ± 7.2
